The values that follow are results of earlier work, collected in patent US10015963B2, “Microemulsions of lipidated glycines and phenoxy ethanol for preservation of personal care products” (GALAXY SURFACTANTS LTD., priority 2014, dated 2018).

For series [1] the following is noted: at room temperature.
For series [2] the following is noted: carboxyl group.

Consider `OCCOc1ccccc1` [phenoxy ethanol, 2-phenoxy ethanol], for which the “phenoxy ethanol solubilized in water” value in series [1] is given as 2.3%. Consider `CCCCCCCC(=O)NCC(=O)O` [capryloyl glycine, N-capryloyl glycine], for which the pKa – broadly, the negative logarithm of the acid dissociation constant – in series [2] is 4.05.
